Experimental data: patent publication US10463664B2, “Inhibitors of HSV nucleotidyl transferases and uses therefor” (Saint Louis University, priority 2013, dated 2019)

Assays:
HSV-1 [1] = experiment: Anti-HSV-1 replication assay in Vero cells, titer by plaque assay; format: cell-based, herpes simplex virus 1; details: for Anti-HSV-1 Log10 suppression 5 μM / Anti-HSV-1 Log10 suppression 50 μM: moi 0.1, 24 h, relative to DMSO; for Inhibition of HSV-1 replication (in words): primary screening; for Anti-HSV-1 Log10 suppression 5 μM (screening symbol) / Anti-HSV-1 Log10 suppression 50 μM (screening symbol): visual inspection
Protocol: (§1) Anti-HSV-1 and -HSV-2 Replication Assay. Compounds to be screened were diluted in PBS supplemented to contain 2% newborn calf serum and 1% glutamine, and added in 100 μL, volume to confluent cell monolayers in 24-well cluster plates. Immediately thereafter HSV-1 and HSV-2, diluted in the supplemented PBS medium, were added to the wells in 50 μl volume such that the final concentration of compound was 50 μM and 5 μM and the multiplicity of infection was 0.1. The plates were incubated at 37° C. for 1 hour and then virus-containing inoculum was removed and the wells were washed once in PBS. Compounds, diluted to 50 μM and 5 μM in DMEM supplemented to contain 2% newborn calf serum and 1% each penicillin/streptomycin, were added at 0.5 mL/well. Plates were incubated at 37° C. an additional 23 hr, and then the plates were visually inspected through a phase contrast microscope for cytopathic effect, and for toxic effect. […] The entire contents of each well were collected by scraping. Samples were frozen at −80° C., and then subsequently thawed, sonicated, and infectious virus titer was determined by standard plaque assay on Vero cell monolayers. Because the compounds were dissolved at 10 mM in 100% DMSO, equivalent dilutions of DMSO were added to additional wells as a control for effects of the diluent. Each experiment was repeated once. EC50 values were determined as above except that serial dilutions of the compound to be tested were prepared starting at 50 μM. The inhibitory values were calculated by non-linear curve-fitting in GraphPad Prism.
(§2) Monolayers were microscopically inspected 24 hours post-infection and wells in which more cells were visually healthier than the DMSO-treated controls were collected. Viral titers in the culture lysates were then determined by standard plaque assay on Vero cells. Inhibition of viral replication was categorized as <1 log10 relative to the DMSO-treated control, 1 to 3 log10 suppression, or ≥3 log10 suppression. […] Additionally, four polyoxygenated heterocycle compounds were tested (#128, 138, 139, 140).

HSV-2 [2] = experiment: Anti-HSV-2 replication assay in Vero cells, titer by plaque assay; format: cell-based, herpes simplex virus 2; details: for Anti-HSV-2 Log10 suppression 5 μM / Anti-HSV-2 Log10 suppression 50 μM: moi 0.1, 24 h, relative to DMSO; for Inhibition of HSV-2 replication (in words): primary screening; for Anti-HSV-2 Log10 suppression 5 μM (screening symbol) / Anti-HSV-2 Log10 suppression 50 μM (screening symbol): visual inspection
Protocol: as §1, §2

HBV RNaseH = target: T1, HBV RNaseH (Hepatitis B virus genotype A2 subtype adw2, UniProt P03159); experiment: Biochemical inhibition of HBV RNaseH (oligonucleotide-directed RNA cleavage assay); details: compounds at 60, 20 or 10 μM
T1 construct: One of the inventors recently produced active recombinant HBV RNase H; hexahistidine; made in house; host or cells: E. coli
Protocol: (§3) Biochemical inhibition of HBV RNaseH and human RNaseH1 activity. […] RNaseH activity was measured using an oligonucleotide-directed RNA cleavage assay in which a DNA oligonucleotide is annealed to an internally ^32P-labeled RNA, the RNA:DNA heteroduplex is incubated with the enzyme to permit cleavage, and then the RNA cleavage products are resolved by electrophoresis and detected by autoradiography. The compounds were included in the reaction mixes at 60, 20, or 10 μM and the amount of the RNA cleavage products in the compound-containing reactions was compared to reactions in which an equivalent concentration of DMSO was added as a vehicle control. The data were quantified using ImageJ.

human RNaseH1 = target: T2, human RNaseH1 (Homo sapiens, UniProt O60930); experiment: Biochemical inhibition of human RNaseH1 (oligonucleotide-directed RNA cleavage assay); details: compounds at 60, 20 or 10 μM
T2 construct: hexahistidine; made in house; host or cells: E. coli
T2 sequence (O60930 1-286): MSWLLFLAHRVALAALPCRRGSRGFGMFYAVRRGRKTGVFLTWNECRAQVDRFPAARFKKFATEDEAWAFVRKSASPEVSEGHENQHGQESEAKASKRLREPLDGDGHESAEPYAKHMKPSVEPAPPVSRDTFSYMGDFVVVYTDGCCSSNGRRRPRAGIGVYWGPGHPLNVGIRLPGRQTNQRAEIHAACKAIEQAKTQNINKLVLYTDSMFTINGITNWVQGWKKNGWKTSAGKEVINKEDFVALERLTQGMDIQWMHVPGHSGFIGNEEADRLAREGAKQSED
Protocol: as §3

HSV-1 [3] = experiment: HSV-1 replication inhibition in primary human foreskin fibroblasts; format: cell-based, herpes simplex virus 1; design: key to Replication inhibition HSV-1 50 μM (not quantified): NQ: Not quantified due to visible toxicity; details: HFF cells; for Replication inhibition HSV-1 5 μM / Replication inhibition HSV-1 50 μM: relative to DMSO-treated control
Protocol: as §1
(§4) Inhibition of viral replication was next assessed in human foreskin fibroblasts (HFF) to determine whether NTS inhibitors could block HSV-1 and HSV-2 replication in a physiologically relevant, primary human cell type. […] Viral yields 24 hours post-infection were measured by plaque assay.

HSV-2 [4] = experiment: HSV-2 replication inhibition in primary human foreskin fibroblasts; format: cell-based, herpes simplex virus 2; design: key to Replication inhibition HSV-2 50 μM (not quantified): NQ: Not quantified due to visible toxicity; details: HFF cells; for Replication inhibition HSV-2 5 μM / Replication inhibition HSV-2 50 μM: relative to DMSO-treated control
Protocol: as §1, §4

[5] = test system: primary human foreskin fibroblasts; experiment: in vitro
Protocol: Toxicity Assays. Qualitative assessments of cytotoxicity were done visually by inspecting the cells in the primary screening assays. For the quantitative assays, cells were plated in 96-well plates at 1.0×10^4 per well. The next day the compounds were added at 0.78 to 100 μM in a final concentration of 1% (v/v) DMSO, and the cells were incubated for 24 hours under conditions identical to those employed for the viral replication inhibition assays. Mitochondrial toxicity was measured by incubating the cells with 0.25 mg/mL thiazolyl blue tetrazolium bromide (MTT, SigmaAldrich Chemical Co.), the cultures were incubated for 60 min, metabolites were solubilized in acidic isopropanol, and absorbance was read at 570 nm. Cellular lysis was measured by detecting release of intracellular proteases with the CytoTox-Glo assay (Promega) according to the manufacturer's instructions. Percent viability was determined for each compound concentration from the maximal absorbance or luminosity data, and then CC50 values were calculated by non-linear curve fitting using GraphPad Prism.
as §4

Vero cells = experiment: Qualitative (visual) cytotoxicity assessment in primary screening; format: cell-based; design: key to Vero cell toxicity Qualitative: T: visual evidence of toxicity at 50 μM; details: for Vero cell toxicity Qualitative: visual, 50 μM
Protocol: Compound Cytotoxicity. Compound cytotoxicity was measured both subjectively and quantitatively. Subjective assessments were done by visually inspecting the infected cells at the end of the 24 hours infection window through a phase-contrast microscope.

T1 sequence (P03159 693-845): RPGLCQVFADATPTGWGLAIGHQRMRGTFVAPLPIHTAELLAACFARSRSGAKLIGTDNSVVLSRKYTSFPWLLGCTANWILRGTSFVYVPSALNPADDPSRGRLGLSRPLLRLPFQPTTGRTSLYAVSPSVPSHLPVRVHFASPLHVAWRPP

SMILES | Anti-HBV RNaseH (HBV RNaseH) | Anti-Human RNaseH1 (human RNaseH1) | Anti-HSV-1 Log10 suppression 5 μM (HSV-1 [1]) [log10] | Anti-HSV-1 Log10 suppression 50 μM (HSV-1 [1]) [log10] | Anti-HSV-2 Log10 suppression 5 μM (HSV-2 [2]) [log10] | Anti-HSV-2 Log10 suppression 50 μM (HSV-2 [2]) [log10] | other results
CC(C)c1ccc(O)c(=O)cc1 [Compound 48, Gamma-thujaplicin] | − (no inhibition at 60 μM) | − (no inhibition at 60 μM) | 0.31 | 4.71 | 0.20 | 4.57 | Inhibition of HSV-1 replication (in words) (HSV-1 [1]): negligible inhibitors; Inhibition of HSV-2 replication (in words) (HSV-2 [2]): negligible inhibitors; Replication inhibition HSV-1 5 μM (HSV-1 [3]): 0.05 log10; Replication inhibition HSV-1 50 μM (HSV-1 [3]; 50 μM): 5.99 log10; Replication inhibition HSV-2 5 μM (HSV-2 [4]): 0.20 log10; Replication inhibition HSV-2 50 μM (HSV-2 [4]; 50 μM): 5.76 log10; CC50 [5]: > 100 µM
O=c1cc(NC2CCc3ccccc32)c2cccnc2n1O (stereo not drawn) [Compound 155] |  |  | 3.85 |  | 3.88 |  | Anti-HSV-1 Log10 suppression 5 μM (HSV-1 [1]; listed as #155): > 3.84 log10; Anti-HSV-2 Log10 suppression 5 μM (HSV-2 [2]; listed as #155): > 3.84 log10; Cytotoxicity at 50 μM (in words) (Vero cells): significant cytotoxicity; Vero cell toxicity Qualitative (Vero cells): T
O=c1c(O)c(-c2cc(O)c(O)c(O)c2)oc2cc(O)cc(O)c12 [Compound 9] | ++ (inhibition at 20 μM) | ++ (inhibition at 20 μM) | 0.30 | 0.38 | −0.04 | 0.67 | 
O=c1cc2oc3cc(O)c(O)cc3c(-c3ccccn3)c-2cc1O [Compound 39] | +++ (inhibition at 10 μM) | +++ (inhibition at 10 μM) | 0.19 | 0.22 | 0.12 | 0.17 | 
O=c1ccc2ccccc2n1O [Compound 43] | − (no inhibition at 60 μM) | − (no inhibition at 60 μM) | 0.31 | 1.31 | 0.31 | 1.13 | 
O=c1cc(NCc2ccccc2)c2cccnc2n1O [Compound 151] |  |  | 2.16 |  | 2.26 |  | Anti-HSV-1 Log10 suppression 5 μM (HSV-1 [1]; listed as #151): > 2.15 log10; Anti-HSV-2 Log10 suppression 5 μM (HSV-2 [2]; listed as #151): > 2.15 log10; Cytotoxicity at 50 μM (in words) (Vero cells): significant cytotoxicity; Vero cell toxicity Qualitative (Vero cells): T
CC(C)c1cccc(O)c(=O)c1 [Compound 47, Beta-thujaplicin] | − (no inhibition at 60 μM) | − (no inhibition at 60 μM) | 0.31 | 1.86 | 0.22 | 1.38 | Inhibition of HSV-1 replication (in words) (HSV-1 [1]): negligible inhibitors; Inhibition of HSV-2 replication (in words) (HSV-2 [2]): negligible inhibitors; Replication inhibition HSV-1 5 μM (HSV-1 [3]): 0.02 log10; Replication inhibition HSV-1 50 μM (HSV-1 [3]; 50 μM): 5.06 log10; Replication inhibition HSV-2 5 μM (HSV-2 [4]): 0.08 log10; Replication inhibition HSV-2 50 μM (HSV-2 [4]; 50 μM): 5.16 log10; CC50 ([5]; read-out: Toxicity, CC50 by MTT assay, HFF cells, 24 h): > 100 µM
O=c1c(O)c(-c2ccc(O)c(O)c2)oc2cc(O)c(O)c(O)c12 [Compound 7] | − (no inhibition at 60 μM) | +++ (inhibition at 10 μM) | 0.44 | 0.48 | 0.03 | 1.26 | 

Further lines, with some results ahead:

Anti-HBV RNaseH (HBV RNaseH) | Anti-Human RNaseH1 (human RNaseH1) | SMILES | Anti-HSV-1 Log10 suppression 5 μM (HSV-1 [1]) [log10] | Anti-HSV-1 Log10 suppression 50 μM (HSV-1 [1]) [log10] | Anti-HSV-2 Log10 suppression 5 μM (HSV-2 [2]) [log10] | Anti-HSV-2 Log10 suppression 50 μM (HSV-2 [2]) [log10] | other results
− (no inhibition at 60 μM) | − (no inhibition at 60 μM) | O=C(Nc1ccc(O)c(=O)cc1)c1ccccc1 [Compound 52] | 0.07 | 2.02 | 0.10 | 1.34 | Inhibition of HSV-1 replication (in words) (HSV-1 [1]): negligible inhibitors; Inhibition of HSV-2 replication (in words) (HSV-2 [2]): negligible inhibitors; Replication inhibition HSV-1 5 μM (HSV-1 [3]): 0.10 log10; Replication inhibition HSV-1 50 μM (not quantified) (HSV-1 [3]; 50 μM): NQ; Replication inhibition HSV-2 5 μM (HSV-2 [4]): −0.01 log10; Replication inhibition HSV-2 50 μM (not quantified) (HSV-2 [4]; 50 μM): NQ; CC50 [5]: > 100 µM
++ (inhibition at 20 μM) | +++ (inhibition at 10 μM) | Cc1c2cc(O)c(=O)cc-2oc2cc(O)c(O)cc12 [Compound 8] | −0.18 | 0.86 | 0.18 | 2.49 | 
− (no inhibition at 60 μM) | + (inhibition at 60 μM) | CCOC(=O)c1cc2ccccc2n(O)c1=O [Compound 42] |  |  |  |  | Anti-HSV-1 Log10 suppression 5 μM (screening symbol) (HSV-1 [1]): −; Anti-HSV-1 Log10 suppression 50 μM (screening symbol) (HSV-1 [1]): −; Anti-HSV-2 Log10 suppression 5 μM (screening symbol) (HSV-2 [2]): −; Anti-HSV-2 Log10 suppression 50 μM (screening symbol) (HSV-2 [2]): −
− (no inhibition at 60 μM) |  | CCOC(=O)c1sc(NC(=O)CSc2nccc(C)n2)c(C#N)c1C [Compound 27] |  |  |  |  | Anti-HSV-1 Log10 suppression 5 μM (screening symbol) (HSV-1 [1]): −; Anti-HSV-1 Log10 suppression 50 μM (screening symbol) (HSV-1 [1]): −; Anti-HSV-2 Log10 suppression 5 μM (screening symbol) (HSV-2 [2]): −; Anti-HSV-2 Log10 suppression 50 μM (screening symbol) (HSV-2 [2]): −; Vero cell toxicity Qualitative (Vero cells): T
− (no inhibition at 60 μM) | − (no inhibition at 60 μM) | Cc1cc(C)n(O)c(=O)c1C#N [Compound 44] |  |  |  |  | Anti-HSV-1 Log10 suppression 5 μM (screening symbol) (HSV-1 [1]): −; Anti-HSV-1 Log10 suppression 50 μM (screening symbol) (HSV-1 [1]): −; Anti-HSV-2 Log10 suppression 5 μM (screening symbol) (HSV-2 [2]): −; Anti-HSV-2 Log10 suppression 50 μM (screening symbol) (HSV-2 [2]): −
++ (inhibition at 20 μM) | − (no inhibition at 60 μM) | Cc1cc(=O)oc2cc(O)c(O)cc12 [Compound 34] | 0.08 | 2.64 | −0.07 | 3.29 | 
